Assay results taken from the NIST ThermoML archive (doi:10.1021/je9002515).
± gives the expanded uncertainty stated by the source.

Assay: xn = mol fraction of the nth substance listed
Conditions: 101 kPa, Liquid, Alternating current cell with electrodes

CNC(C)=O [N-methylacetamide] + CC(=O)N(C)C
electrical conductivity [S/m]
Conditions | 303.15 K | 313.15 K | 323.15 K | 333.15 K | 343.15 K | 353.15 K | 363.15 K | 373.15 K | 383.15 K | 393.15 K
x1 = 0.1041 | 0.0107 ± 0.0017 | 0.0131 ± 0.0021 | 0.0151 ± 0.0024 | 0.0175 ± 0.0028 | 0.0202 ± 0.0032 | 0.0234 ± 0.0037 | 0.0269 ± 0.0043 | 0.0305 ± 0.0049 | 0.0344 ± 0.0055 | 0.0396 ± 0.0063
x1 = 0.2077 | 0.0173 ± 0.0028 | 0.0201 ± 0.0032 | 0.023 ± 0.0037 | 0.0261 ± 0.0042 | 0.0299 ± 0.0048 | 0.0349 ± 0.0056 | 0.0413 ± 0.0066 | 0.049 ± 0.0078 | 0.0567 ± 0.0091 | 0.0641 ± 0.01
x1 = 0.3056 | 0.0162 ± 0.0026 | 0.0192 ± 0.0031 | 0.0229 ± 0.0037 | 0.0273 ± 0.0044 | 0.0331 ± 0.0053 | 0.0403 ± 0.0064 | 0.0495 ± 0.0079 | 0.06 ± 0.0096 | 0.0708 ± 0.011 | 0.081 ± 0.013
x1 = 0.4019 | 0.0203 ± 0.0032 | 0.0241 ± 0.0039 | 0.0285 ± 0.0046 | 0.0335 ± 0.0054 | 0.0394 ± 0.0063 | 0.0464 ± 0.0074 | 0.0548 ± 0.0088 | 0.0646 ± 0.01 | 0.075 ± 0.012 | 0.0851 ± 0.014
x1 = 0.506 | 0.0239 ± 0.0038 | 0.0287 ± 0.0046 | 0.034 ± 0.0054 | 0.0397 ± 0.0063 | 0.0459 ± 0.0073 | 0.0532 ± 0.0085 | 0.0619 ± 0.0099 | 0.0714 ± 0.011 | 0.0813 ± 0.013 | 0.0907 ± 0.015
x1 = 0.6088 | 0.0215 ± 0.0034 | 0.0262 ± 0.0042 | 0.0315 ± 0.005 | 0.0373 ± 0.006 | 0.0436 ± 0.007 | 0.051 ± 0.0081 | 0.0597 ± 0.0096 | 0.0702 ± 0.011 | 0.0816 ± 0.013 | 0.0934 ± 0.015
x1 = 0.6985 | 0.0328 ± 0.0052 | 0.04 ± 0.0064 | 0.0485 ± 0.0078 | 0.0584 ± 0.0093 | 0.0688 ± 0.011 | 0.0798 ± 0.013 | 0.0922 ± 0.015 | 0.106 ± 0.017 | 0.119 ± 0.019 | 0.131 ± 0.021
x1 = 0.7974 | 0.0314 ± 0.005 | 0.039 ± 0.0062 | 0.0477 ± 0.0076 | 0.0571 ± 0.0091 | 0.0666 ± 0.011 | 0.076 ± 0.012 | 0.0854 ± 0.014 | 0.0948 ± 0.015 | 0.105 ± 0.017 | 0.118 ± 0.019
x1 = 0.9001 | 0.0329 ± 0.0053 | 0.0421 ± 0.0067 | 0.0528 ± 0.0084 | 0.0645 ± 0.01 | 0.0778 ± 0.012 | 0.0929 ± 0.015 | 0.11 ± 0.018 | 0.127 ± 0.02 | 0.146 ± 0.023 | 0.167 ± 0.027
x1 = 1 | 0.0324 ± 0.0052 | 0.0447 ± 0.0072 | 0.0614 ± 0.0098 | 0.0775 ± 0.012 | 0.105 ± 0.017 | 0.129 ± 0.021 | 0.165 ± 0.026 | 0.192 ± 0.031 | 0.219 ± 0.035 | 0.247 ± 0.04
